Literature values as cited in paper PMC3185201 (Molecular pharmaceutics, 2011).

System: NEP 24.11
Conditions: prior study

- Protection from the degradation by NEP 24.11: outstanding protection
SMILES: CC[C@H](C)[C@H](NC(=O)[C@H](Cc1ccccc1)NC(=O)[C@H](CCC(=O)O)NC(=O)[C@H](CCCCN)NC(=O)[C@H](C)NC(=O)[C@H](C)NC(=O)[C@H](CCC(N)=O)NC(=O)[C@@H]1CCCCNC(=O)CC[C@H](NC(=O)[C@H](CO)NC(=O)[C@@H](NC(=O)[C@H](CC(=O)O)NC(=O)[C@H](CO)NC(=O)[C@@H](NC(=O)[C@H](Cc2ccccc2)NC(=O)[C@@H](NC(=O)CNC(=O)[C@H](CCC(=O)O)NC(=O)C(C)(C)NC(=O)[C@@H](N)Cc2c[nH]cn2)[C@@H](C)O)[C@@H](C)O)C(C)C)C(=O)N[C@@H](Cc2ccc(O)cc2)C(=O)N[C@@H](CC(C)C)C(=O)N[C@@H](CCC(=O)O)C(=O)N1)C(=O)N[C@H]1CCC(=O)NCCCC[C@@H](C(=O)NCC(=O)N[C@@H](CCCNC(=N)N)C(=O)NCCCCCC(=O)N[C@@H](CS)C(N)=O)NC(=O)[C@H](C(C)C)NC(=O)[C@H](CC(C)C)NC(=O)[C@H](Cc2c[nH]c3ccccc23)NC1=O [EM3106B]
